Measurements published in paper PMC10319141, “Imidazoquinolines with improved pharmacokinetic properties induce a high IFNα to TNFα ratio in vitro and in vivo” (Frontiers in Immunology, 2023).
Like-named read-outs stand apart in the source and are kept apart here.

Experiments:
human TLR7 = biological target: T1, human TLR7 (Homo sapiens, UniProt Q9NYK1); test: HEK-Blue hTLR7 SEAP reporter assay; format: cell-based; conditions: for TLR7 activity rel. to assay max: average maximal SEAP secretion relative to maximum secretion observed in the assay
T1 construct: host or cells: HEK blue hTLR7 reporter cells
T1 sequence (Q9NYK1 27-1049): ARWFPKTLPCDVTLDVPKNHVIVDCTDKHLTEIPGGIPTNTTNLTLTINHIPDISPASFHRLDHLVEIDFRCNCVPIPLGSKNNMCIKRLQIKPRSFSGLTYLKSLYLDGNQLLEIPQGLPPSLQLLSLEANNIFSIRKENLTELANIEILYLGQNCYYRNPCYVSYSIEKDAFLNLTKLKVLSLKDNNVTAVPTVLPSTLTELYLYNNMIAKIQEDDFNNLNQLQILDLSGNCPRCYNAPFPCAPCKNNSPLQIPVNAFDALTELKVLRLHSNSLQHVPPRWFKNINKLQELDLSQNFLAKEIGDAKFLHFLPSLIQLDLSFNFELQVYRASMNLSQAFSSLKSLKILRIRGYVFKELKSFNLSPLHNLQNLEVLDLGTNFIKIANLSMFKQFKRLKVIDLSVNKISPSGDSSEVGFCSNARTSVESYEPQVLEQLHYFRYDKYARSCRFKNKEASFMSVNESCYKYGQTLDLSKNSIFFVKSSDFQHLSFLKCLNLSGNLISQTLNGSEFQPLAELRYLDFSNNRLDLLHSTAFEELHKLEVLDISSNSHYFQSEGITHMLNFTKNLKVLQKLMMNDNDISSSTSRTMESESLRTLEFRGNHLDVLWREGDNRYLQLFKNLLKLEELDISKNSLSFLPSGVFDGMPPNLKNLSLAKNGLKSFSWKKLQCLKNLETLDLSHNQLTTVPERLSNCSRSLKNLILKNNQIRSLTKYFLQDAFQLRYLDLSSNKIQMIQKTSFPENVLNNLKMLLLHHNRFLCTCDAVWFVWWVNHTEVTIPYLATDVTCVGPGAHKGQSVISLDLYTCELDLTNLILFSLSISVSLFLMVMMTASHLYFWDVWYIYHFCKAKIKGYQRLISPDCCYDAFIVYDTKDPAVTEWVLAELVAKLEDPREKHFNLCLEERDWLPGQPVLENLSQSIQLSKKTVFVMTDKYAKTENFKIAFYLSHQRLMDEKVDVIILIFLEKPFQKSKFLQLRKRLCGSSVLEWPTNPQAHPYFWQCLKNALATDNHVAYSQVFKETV
Procedure: (§1) HEK blue hTLR7 or hTLR8 reporter cells (Invivogen) were cultivated in DMEM High Glucose (Biowest) according to the manufacturer’s instructions. Cells were treated with test compounds and controls at various concentrations in serum-free DMEM and incubated at 37°C, 5% CO2 for 24 h before supernatants were collected.
(§2) Relative secreted embryonic alkaline phosphatase (SEAP) activity in the supernatants was determined by quantification of para-Nitrophenyl Phosphate (pNPP)-turnover. Supernatants were diluted 10-fold in a solution containing 1 mM MgCl2, 1 M diethanolamine and 1 mg/mL pNPP and incubated at RT for 15 min before the reaction was stopped by the addition of 0.25 volumes of 1 M NaOH. Absorbance was measured at 405 nm on a Versamax microplate reader (Molecular Devices) and normalized to the mean of >5 solvent controls.
(§3) To obtain reliable estimates, replicate measurements of a minimum of 2 experiments were normalized to the maximal SEAP activity of a compound in a given experiment and pooled before fitting a non-linear function to the data.

[1] = Compound concentrations in organs and plasma after three consecutive daily s.c. treatments (Figure 6B, S7); format: in vivo, mice; conditions: for compound plasma level at peak: s.c.; for concentration at 4 h / concentration at 28 h / concentration at 52 h: mouse, sc, repeated daily s.c. treatment; for concentration at 4 h: after 4 h; for concentration at 28 h: after 28 h; for concentration at 52 h: after 52 h
Procedure: All samples were extracted with 3 or 6 volumes acetonitrile containing terbuthylazine as an internal standard (ACN) relative to either sample weight or volume. Liquid samples (plasma, culture medium, cell suspensions in stability experiments) were diluted in either 3 (culture medium, cell suspensions) or 6 (plasma) volumes ACN, pellet and blood samples were extracted by addition of ACN followed by sonication for 5 min. Organ samples were digested with 0.5 µg/mg Proteinase K (Genaxxon) for 1 h at 50°C before being homogenized using a Fastprep FP-24 5G instrument (MP-Biomedicals). Homogenates were diluted with 6 volumes ACN and homogenized again. All extracts were cleared by centrifugation at ~20.000xg for 10 min at 4°C.
Quantification of analytes was performed on an Agilent 1260/1290 Infinity system fitted with an Agilent C18 Poroshell 120 column (4.6 x 50 mm, 2.7 µm) coupled to a triple quadrupole Sciex API 4000 MS/MS detector. The mobile phase was composed of water containing 0.1% formic acid (eluent A) and acetonitrile containing 0.1% formic acid (eluent B). Gradient used was: 5% B for 0.5 min, to 100% B in 4.5 min, 100% B for 2 min, to 5% B in 0.5 min, 5% for 2.5 min. MS detection parameters are listed in SI Table S1 .
Formulation. Test compounds were prepared for application in either 1% Tween 80, 9% PEG400 in ultrapure water (Biowest) (i.v., i.p., p.o. application) or 5 mM citric acid in 0.9% saline (Braun) (subcutaneous application). If compounds were administered subcutaneously, injections were carried out into the neck crease.
Collection of Samples. Mice were bled from the tail vein at various timepoints. Heparin (Sigma) or K2-EDTA (Sigma) was added to blood samples to a final […] concentration of 10-15 Unit or 5 mM. Plasma was generated by centrifugation at 6800xg for 8 min at 4°C and stored at -80°C until analyzed by ELISA or CBA. Animals were sacrificed after the indicated time points by CO2 inhalation. Heart blood and organs for compound quantification by HPLC-MS/MS were collected post mortem and stored at –20°C until extracted as described above.
Dotted lines indicate the time of repeated compound applications. (A) Cytokine levels in pooled tail plasma of mice from individual treatment groups (n=3 per pool and time point), error bars represent range of two replicate measurements. (B) Peripheral blood was collected from the tail vein before, 15, 30 60, 120, 240, 360 and 480 min after s.c. treatment. Compound concentration in peripheral plasma was analyzed by HPLC-MS/MS, data presented as mean ± SD.
Samples were collected 4 h, 28 h and 52 h after s.c. treatment. Skin samples were sampled
at time points 4 h and 52 h. Compound concentrations were analyzed by HPLC-MS/MS, data

human TLR8 = biological target: T2, human TLR8 (Homo sapiens, UniProt Q9NR97); test: HEK-Blue hTLR8 SEAP reporter assay; format: cell-based; conditions: for TLR8 activity rel. to assay max: average maximal SEAP secretion relative to maximum secretion observed in the assay; for SEAP secretion from HEK-Blue hTLR-8: in words
T2 construct: host or cells: HEK blue hTLR8 reporter cells
T2 sequence (Q9NR97 27-1041): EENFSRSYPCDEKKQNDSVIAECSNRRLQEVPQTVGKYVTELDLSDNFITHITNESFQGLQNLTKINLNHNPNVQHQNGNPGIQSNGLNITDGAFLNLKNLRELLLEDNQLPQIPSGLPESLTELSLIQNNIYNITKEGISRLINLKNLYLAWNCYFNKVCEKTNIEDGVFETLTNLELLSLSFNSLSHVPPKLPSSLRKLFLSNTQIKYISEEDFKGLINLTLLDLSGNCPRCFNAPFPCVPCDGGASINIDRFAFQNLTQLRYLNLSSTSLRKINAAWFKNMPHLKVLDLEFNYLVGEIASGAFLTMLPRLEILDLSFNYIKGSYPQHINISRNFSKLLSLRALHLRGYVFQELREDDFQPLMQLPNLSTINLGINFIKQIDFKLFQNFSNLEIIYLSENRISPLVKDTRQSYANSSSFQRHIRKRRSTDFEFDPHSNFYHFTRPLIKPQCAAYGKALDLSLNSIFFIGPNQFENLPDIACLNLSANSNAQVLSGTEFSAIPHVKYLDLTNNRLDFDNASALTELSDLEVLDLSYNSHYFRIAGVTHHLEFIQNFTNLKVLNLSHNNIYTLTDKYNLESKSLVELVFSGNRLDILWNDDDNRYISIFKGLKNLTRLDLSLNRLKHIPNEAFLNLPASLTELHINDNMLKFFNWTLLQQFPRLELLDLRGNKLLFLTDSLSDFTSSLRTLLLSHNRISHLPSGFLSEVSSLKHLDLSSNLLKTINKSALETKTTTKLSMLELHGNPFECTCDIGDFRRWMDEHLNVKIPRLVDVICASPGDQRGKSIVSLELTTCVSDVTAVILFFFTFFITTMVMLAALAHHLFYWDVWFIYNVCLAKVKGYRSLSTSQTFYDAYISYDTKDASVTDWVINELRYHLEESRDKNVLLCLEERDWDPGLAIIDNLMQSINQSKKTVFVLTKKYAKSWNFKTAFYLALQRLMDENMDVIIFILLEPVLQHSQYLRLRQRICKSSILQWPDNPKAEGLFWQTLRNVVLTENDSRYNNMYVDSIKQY
Procedure: as §1, §2, §3

PMA-differentiated U937 = test: MTT viability assay in PMA-differentiated U937; format: cell-based; conditions: 25 µM; PMA-differentiated U937, 2 days
undifferentiated U937 = test: Helix NIR dye exclusion in undifferentiated U937; format: cell-based; conditions: 25 µM; in words
Procedure: Exclusion of Helix NIR (BioLegend) was used to assay membrane integrity following compound treatment. Culture conditions for U937 were as described above, undifferentiated cells were incubated with varying concentrations of compound or with solvent. Helix NIR was added to the cells to a final concentration of 10 nM, cells were incubated at RT for 10 min and acquired on a ZE5 Cell Analyzer (Bio-Rad). The cutoff for positive staining was set to approximately the 99th percentile of unstained cells.

[2] = 95% CI, HEK-blue human TLR7, 24 h, read-out: TLR7 EC50
[3] = Figure S3, axis c/[µM], pooled from 3 experiments, read-out: compound-specific EC50 in dose response plot, HEK Blue hTLR7
[4] = brain, read-out: concentration in brain
[5] = liver, read-out: concentration in liver
[6] = 95% CI, HEK-blue human TLR8, 24 h, read-out: TLR8 EC50
[7] = Figure S4, axis c/[µM], pooled from 3 experiments, read-out: compound-specific EC50 in dose response plot, HEK Blue hTLR8

Compound | EC50 (human TLR7; [2]) | EC50 (human TLR7; [3]) | TLR7 activity rel. to assay max (human TLR7) | compound plasma level at peak ([1]; day 1, 60 min after application) | compound plasma level at peak ([1]; day 2, 60 min after application) | compound plasma level at peak ([1]; day 3, 60 min after application) | concentration at 4 h [1, 4] | concentration at 28 h [1, 4] | concentration at 52 h [1, 4] | concentration at 4 h [1, 5] | concentration at 28 h [1, 5] | concentration at 52 h [1, 5] | Average maximal activity in HEK-Blue hTLR7 relative to RSQ (human TLR7) | maximal induction in HEK-Blue hTLR-8 (lower than that of RSQ) (human TLR8) | EC50 (human TLR8; [6]) | EC50 (human TLR8; [7]) | TLR8 activity rel. to assay max (human TLR8) | MTT U937, percent MTT conversion relative to solvent controls (PMA-differentiated U937) | effect on membrane integrity, dye exclusion assay in U937 (undifferentiated U937) | SEAP secretion from HEK-Blue hTLR-8 (human TLR8)
CC(C)Cn1cnc2c(N)nc3ccccc3c21 [IMQ, Imiquimod] | 5.2 to 8.3 µM | 6.52 µM | 35% ± 7% | 796 nM | 606 nM | 608 nM | 32 nM | 135 nM | 177 nM | 630 nM | 824 nM | 645 nM |  |  |  |  |  |  |  | 
CCCCc1nc2c(N)nc3ccccc3c2n1CC1CCNCC1 [A2] | 0.075 to 0.12 µM | 0.0957 µM | 81% ± 13% |  |  |  |  |  |  |  |  |  | 81% | 57% | 2.8 to 3.1 µM | 2.96 µM | 57% ± 9% |  |  | 
CCCCc1nc2c(N)nc3ccccc3c2n1CCOCCOCCO [A4] | 1.5 to 2.1 µM | 1.76 µM | 84% ± 5% |  |  |  |  |  |  |  |  |  |  | 18% | 11 to 13 µM | 12.1 µM | 18% ± 8% |  |  | 
CCCCc1nc2c(N)nc3ccccc3c2n1CCC1CCN(C(=O)OC(C)(C)C)CC1 [A1-boc] | 0.39 to 0.69 µM | 0.527 µM | 55% ± 7% |  |  |  |  |  |  |  |  |  | 55% |  |  |  | 4% ± 2% | 50% | negative effects on membrane integrity | close to baseline
CCCCc1nc2c(N)nc3ccccc3c2n1CC1CCN(C(=O)OC(C)(C)C)CC1 [A2-boc] | 0.23 to 0.47 µM |  | 86% ± 9% |  |  |  |  |  |  |  |  |  | 86% |  |  |  | 4% ± 1% |  |  | close to baseline
CCCCc1nc2c(N)nc3ccccc3c2n1CCOCCOCCN [A3] | 1 to 1.5 µM | 1.24 µM | 62% ± 9% |  |  |  |  |  |  |  |  |  |  | 36% | 8.2 to 8.5 µM | 8.36 µM | 36% ± 4% |  |  | 
